Measured values reported in patent US11890287B2, “Therapeutic compounds and compositions for treating social disorders and substance use disorders” (Kinoxis Therapeutics Pty Ltd, priority 2015, dated 2024).
Each block holds one compound with its values, some of them ahead of it.

Assays:
Wistar rats = experiment: Biotelemetry of body temperature and heart rate; type: in vivo, rat; details: SR49059 10 mg/kg before SOC-1
Method: FIG. 7—The monitored body temperatures of Wistar rats administered vehicle, SOC-1 (5 mg/kg), or SOC-1 and the V1A receptor antagonist SR49059 (10 mg/kg).
FIG. 8—The monitored heart rates for Wistar rats administered vehicle, SOC-1 (5 mg/kg), or SOC-1 and the V1A receptor antagonist SR49059 (10 mg/kg).
However, the rats were not ataxic or comatose, they were simply in a relaxed quiescent state. […] Effects on body temperature and other behaviours are not blocked by pre-treatment with the vasopressin V1A receptor antagonist SR49059 (10 mg/kg). […] The data in these two studies was gathered with DataSciences International biotelemetry system.

male Sprague Dawley rats = experiment: Methamphetamine-primed reinstatement; type: in vivo, rat; details: C25 10 mg/kg IP or SR49059 1 mg/kg IP before SOC-1 10 mg/kg
[1] = test system: Fos-positive cells in brain regions of interest; experiment: Fos immunohistochemistry in rat brain; type: in vivo, male Wistar rats; details: OT 1 mg/kg, SOC-1 5 mg/kg
Method: Fos immunohistochemistry was used to identify the neural “signature” of SOC-1 (5 mg/kg) in rat brain relative to injections of peripheral oxytocin (OT) (1 mg/kg). SOC-1 produces a similar overall pattern of neural activation and behavioural effects as OT. However, the effects are much larger and additional areas are activated by SOC-1 that are implicated in the regulation of social behaviour (e.g. lateral septum, medial preoptic area and supraoptic nucleus). SOC-1 produces powerful activation of OT-containing neurons in both the supraoptic (FIG. 6: (A)=vehicle; (B)=oxytocin; and (C)=SOC-1) and paraventricular nucleus of the hypothalamus.

HEK-293 cells = experiment: Cell viability (Cell Titer Blue); type: cell-based; details: 48 hours; for Viability: mean ± SD
Method: (§1) No apparent cytotoxicity of SOC-1 has been seen in vitro or toxicity in vivo. In a test, SH-SY5Y neuroblastoma cells and HEK-293 cells (4×10^4 cells per well) were exposed to OT or SOC-1 (0.01-10 μM) for 48 hours, with daily media changes. Viability of cells was assessed after a 4 hour exposure to Cell Titer Blue (Promega).

[2] = test system: SH-SY5Y neuroblastoma cells; experiment: Cell viability (Cell Titer Blue); type: cell-based; details: 48 hours; for Viability: mean ± SD
Method: as §1

SMILES: COc1ccc(S(=O)(=O)N2c3ccc(Cl)cc3[C@](O)(c3ccccc3Cl)[C@@H]2C(=O)N2CCC[C@H]2C(N)=O)cc1OC [SR49059, reference compound]
block of SOC-1 effects on body temperature and other behaviours by pre-treatment (Wistar rats): not blocked
block of the attenuating effect of SOC-1 on methamphetamine-primed reinstatement (male Sprague Dawley rats): failed to block the attenuating effect of SOC-1

SMILES: CC[C@H](C)[C@@H]1NC(=O)[C@H](Cc2ccc(O)cc2)NC(=O)[C@@H](N)CSSC[C@@H](C(=O)N2CCC[C@H]2C(=O)N[C@@H](CC(C)C)C(=O)NCC(N)=O)NC(=O)[C@H](CC(N)=O)NC(=O)[C@H](CCC(N)=O)NC1=O [Oxytocin, oxytocin, reference compound]
Mean number of Fos-positive cells, BNST (dorsolateral division) [1]: 11.33
Mean number of Fos-positive cells, BNST (middle anterior part)) [1]: 5.83
Mean number of Fos-positive cells, Central nucleus of the amygdala [1]: 25.14
Mean number of Fos-positive cells, Lateral Parabrachial nucleus [1]: 19.14
Mean number of Fos-positive cells, Lateral septum (ventral) [1]: 9.17
Mean number of Fos-positive cells, Locus Ceruleus [1]: 4.14
Mean number of Fos-positive cells, Medial preoptic area [1]: 3.8
Mean number of Fos-positive cells, Median preoptic nucleus [1]: 7.17
Mean number of Fos-positive cells, Nucleus of Solitary Tract [1]: 31.68
Mean number of Fos-positive cells, PAG (ventrolateral) [1]: 6.57
Mean number of Fos-positive cells, Paraventircular nucleus [1]: 55.57
Mean number of Fos-positive cells, Supraoptic nucleus [1]: 4.57
Mean percent of OT cells that were Fos positive, Paraventircular nucleus [1]: 22.07%
Mean percent of OT cells that were Fos positive, Supraoptic nucleus [1]: 13.5%
Viability (HEK-293 cells; 0.01 μM): 97.8 ± 6.6 percentage of vehicle viability
Viability (HEK-293 cells; 0.1 μM): 100.0 ± 3.2 percentage of vehicle viability
Viability (HEK-293 cells; 1 μM): 101.5 ± 3.7 percentage of vehicle viability
Viability (HEK-293 cells; 10 μM): 104.3 ± 2.6 percentage of vehicle viability
differences in viability (HEK-293 cells; 0.01-10 μM): No significant differences in viability
Viability ([2]; 0.01 μM): 100.4 ± 2.4 percentage of vehicle viability
Viability ([2]; 0.1 μM): 101.3 ± 1.0 percentage of vehicle viability
Viability ([2]; 1 μM): 100.2 ± 1.1 percentage of vehicle viability
Viability ([2]; 10 μM): 100.6 ± 2.9 percentage of vehicle viability
differences in viability ([2]; 0.01-10 μM): No significant differences in viability

SMILES: COCc1nnc(N2CC(Oc3ccc(F)cc3Cl)C2)n1-c1ccc(OC)nc1 [C25, 5-(3-(3-(2-chloro-4-fluorophenoxy)azetidin-1-yl)-5-(methoxymethyl)-4H-1,2,4-triazol-4-yl)-2-methoxypyridine, reference compound]
block of the attenuating effect of SOC-1 on methamphetamine-primed reinstatement (male Sprague Dawley rats): failed to block the attenuating effect of SOC-1

Second part, the compound after the results:

melting point: 126 to 128 °C
SMILES: COc1ccc2c(c1)NCc1cnn(C)c1N2 [FB-SOC-6, 7-Methoxy-1-methyl-1,4,5,10-tetrahydrobenzo[b]pyrazolo[3,4-e][1,4]diazapine]

melting point: 181 to 183 °C
SMILES: Cn1ncc2c1Nc1ccc(F)cc1NC2 [FB-SOC-2, 7-Fluoro-1-methyl-1,4,5,10-tetrahydrobenzo[b]pyrazolo[3,4-e][1,4]diazapine]

melting point: 137 to 139 °C
SMILES: Cc1cccc2c1Nc1c(cnn1C)CN2 [FB-SOC-5, 1,9-Dimethyl-1,4,5,10-tetrahydrobenzo[b]pyrazolo[3,4-e][1,4]diazepine]

melting point: 172 to 173 °C
SMILES: Cc1ccc2c(c1)NCc1cnn(C)c1N2 [FB-SOC-4, 1,7-Dimethyl-1,4,5,10-tetrahydrobenzo[b]pyrazolo[3,4-e][1,4]diazapine]
